From patent US20120065226A1, “SALTS OF […] 10-CAMPH[…]” (ADAMED SP Z O.O., priority 2009, published 2012) come the findings set out here.

Where a name gives a salt, the structure may show the parent alone.

Data set [1] is described as follows: Hygroscopicity of the crystals. The class given is physicochemical.
A short description of data set [2]: Recrystallization from various organic solvents, crystalline form by XRPD. The class given is physicochemical. To be noted: XRPD analysis. An excerpt:
The process for the preparation of novel tiotropium salts with 10-camphorsulphonic acid and with single optical isomers thereof as well as monohydrates of the salts according to the present invention allows to obtain the desired product as stable, non-hygroscopic crystals, with high yield and with purity acceptable for being used in pharmaceutical compositions. Stability of crystalline anhydrous tiotropium salts with 1R-(−)-10-camphorsulphonic and 1S-(+)-10-camphorsulphonic acids was confirmed experimentally. […] Therefore, no transformation or modification of a crystalline salt takes place.
XRPD patterns were obtained using Rigaku MiniFlex X-ray diffractometer, with Cu Kα radiation, filter Kβ. Lamps parameters were set at 30 kV and 15 mA. Divergence and scattering slits were set at 4.2°, and a receiving slit was set at 0.3 mm. Deflection of rays was detected with scintillation detector NaI. The θ/2θ continuous scan at 1°/min with a step of 0.02° from 2.0 to 40° 2θ was used. The samples were prepared by pressing the solid in a quartz holder.

Consider `CC1(C)C2CC[C@]1(CS(=O)(=O)[O-])C(=O)C2.C[N+]1(C)C2CC(OC(=O)C(O)(c3cccs3)c3cccs3)CC1C1OC12.O` (stereo not drawn) [Crystalline monohydrate of tiotropium salt with 1R-(−)-10-camphorsulphonic acid], for which the hygroscopicity result in data set [1] was “non-hygroscopic”.
Same read-out and setting: the value for `CC1(C)C2CC[C@@]1(CS(=O)(=O)[O-])C(=O)C2.C[N+]1(C)C2CC(OC(=O)C(O)(c3cccs3)c3cccs3)CC1C1OC12.O` (stereo not drawn) [Crystalline monohydrate of tiotropium salt with 1S-(+)-10-camphorsulphonic acid] was “non-hygroscopic”.
With `C[N+]1(C)C2CC(OC(=O)C(O)(c3cccs3)c3cccs3)CC1C1OC12` (stereo not drawn) [Tiotropium salt with 1R-(−)-10-camphorsul-phonic acid, anhyd] [Tiotropium salt with 1R-(−)-10-camphorsulphonic acid (anhydrous)], in data set [2], the “crystalline form after recrystallization” value is “initial crystalline form”.
The same measure, in the same setting: the value for `C[N+]1(C)C2CC(OC(=O)C(O)(c3cccs3)c3cccs3)CC1C1OC12` (stereo not drawn) [Tiotropium salt with 1S-(+)-10-camphorsul-phonic acid, anhyd] [Tiotropium salt with 1S-(+)-10-camphorsulphonic acid (anhydrous)] was “initial crystalline form”.
